Assay results reported in PMC11117721, “A Fast-Binding, Functionally Reversible, COX-2 Radiotracer for CNS PET Imaging” (ACS Central Science, 2024).
In brackets after ≈: the same amount, converted by molar mass. Several values for one entry are separate records, joined by “and”; a condition that tells them apart may be missing. Identical values can stand only once.

How the values were obtained:
[1] = tested on: COX-2; set-up: method as in earlier work; conditions: human brain PET; cited from earlier work
[2] = target: T1, COX-2 (Homo sapiens, UniProt P35354); experiment: LCMS-based biochemical COX-2 assay (arachidonic acid to PGE2), short 2 min enzyme-inhibitor incubation; conditions: COX2 IC50 (nM, 2 min), LCMS readout
T1 sequence (P35354 18-604): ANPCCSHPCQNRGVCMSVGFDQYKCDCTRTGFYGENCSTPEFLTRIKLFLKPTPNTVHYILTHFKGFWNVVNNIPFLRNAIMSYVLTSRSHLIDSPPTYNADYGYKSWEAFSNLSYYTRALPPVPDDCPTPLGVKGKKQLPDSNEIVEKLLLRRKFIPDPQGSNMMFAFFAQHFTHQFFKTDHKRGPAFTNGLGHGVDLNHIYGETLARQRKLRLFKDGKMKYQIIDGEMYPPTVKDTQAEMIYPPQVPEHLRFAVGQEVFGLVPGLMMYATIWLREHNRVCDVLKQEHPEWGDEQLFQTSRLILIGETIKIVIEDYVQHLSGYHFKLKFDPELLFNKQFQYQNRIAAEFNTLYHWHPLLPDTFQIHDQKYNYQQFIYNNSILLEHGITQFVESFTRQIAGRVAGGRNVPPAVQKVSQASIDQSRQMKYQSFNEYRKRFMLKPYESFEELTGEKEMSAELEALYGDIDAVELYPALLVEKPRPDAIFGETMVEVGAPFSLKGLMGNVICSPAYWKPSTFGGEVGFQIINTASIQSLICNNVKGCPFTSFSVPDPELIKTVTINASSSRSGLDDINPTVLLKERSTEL
Description: To anticipate fast washout pharmacokinetics in vivo, we utilized simple plasma and brain protein binding assays to maximize the unbound fraction. […] Previous COX-2 discovery relied on whole blood assays to measure COX-2 inhibition. Focusing on fast-binding inhibitors, we prioritized SAR derived from a rapid inhibition LCMS-based enzymatic assay.

[3] = Plasma protein binding (fraction unbound in plasma, Fup); type: in vitro ADME, mouse; conditions: for Fup: as fraction, plasma protein binding; for Fup (mouse, %): mouse plasma
Description: (§1) To select the best starting point for COX-2 radiotracer development, we extensively profiled a large set of known COX-2 selective inhibitors. Our primary focus was to identify a ligand with high binding affinity, COX-2 selectivity over COX-1, fast on-rate binding kinetics and improved free fraction in plasma to maximize the signal-to-noise ratio in PET imaging experiments. […] To anticipate fast washout pharmacokinetics in vivo, we utilized simple plasma and brain protein binding assays to maximize the unbound fraction.

[4] = Brain protein binding (fraction unbound in brain, Fub); type: in vitro ADME
Description: as §1

[5] = Permeability (Papp); type: in vitro ADME; conditions: not told
[6] = target: P-gp (Homo sapiens, UniProt P08183); experiment: Efflux ratio (ER) / P-gp efflux; type: in vitro ADME; conditions: for ER: efflux ratio
P-gp, sequence (P08183 whole entry): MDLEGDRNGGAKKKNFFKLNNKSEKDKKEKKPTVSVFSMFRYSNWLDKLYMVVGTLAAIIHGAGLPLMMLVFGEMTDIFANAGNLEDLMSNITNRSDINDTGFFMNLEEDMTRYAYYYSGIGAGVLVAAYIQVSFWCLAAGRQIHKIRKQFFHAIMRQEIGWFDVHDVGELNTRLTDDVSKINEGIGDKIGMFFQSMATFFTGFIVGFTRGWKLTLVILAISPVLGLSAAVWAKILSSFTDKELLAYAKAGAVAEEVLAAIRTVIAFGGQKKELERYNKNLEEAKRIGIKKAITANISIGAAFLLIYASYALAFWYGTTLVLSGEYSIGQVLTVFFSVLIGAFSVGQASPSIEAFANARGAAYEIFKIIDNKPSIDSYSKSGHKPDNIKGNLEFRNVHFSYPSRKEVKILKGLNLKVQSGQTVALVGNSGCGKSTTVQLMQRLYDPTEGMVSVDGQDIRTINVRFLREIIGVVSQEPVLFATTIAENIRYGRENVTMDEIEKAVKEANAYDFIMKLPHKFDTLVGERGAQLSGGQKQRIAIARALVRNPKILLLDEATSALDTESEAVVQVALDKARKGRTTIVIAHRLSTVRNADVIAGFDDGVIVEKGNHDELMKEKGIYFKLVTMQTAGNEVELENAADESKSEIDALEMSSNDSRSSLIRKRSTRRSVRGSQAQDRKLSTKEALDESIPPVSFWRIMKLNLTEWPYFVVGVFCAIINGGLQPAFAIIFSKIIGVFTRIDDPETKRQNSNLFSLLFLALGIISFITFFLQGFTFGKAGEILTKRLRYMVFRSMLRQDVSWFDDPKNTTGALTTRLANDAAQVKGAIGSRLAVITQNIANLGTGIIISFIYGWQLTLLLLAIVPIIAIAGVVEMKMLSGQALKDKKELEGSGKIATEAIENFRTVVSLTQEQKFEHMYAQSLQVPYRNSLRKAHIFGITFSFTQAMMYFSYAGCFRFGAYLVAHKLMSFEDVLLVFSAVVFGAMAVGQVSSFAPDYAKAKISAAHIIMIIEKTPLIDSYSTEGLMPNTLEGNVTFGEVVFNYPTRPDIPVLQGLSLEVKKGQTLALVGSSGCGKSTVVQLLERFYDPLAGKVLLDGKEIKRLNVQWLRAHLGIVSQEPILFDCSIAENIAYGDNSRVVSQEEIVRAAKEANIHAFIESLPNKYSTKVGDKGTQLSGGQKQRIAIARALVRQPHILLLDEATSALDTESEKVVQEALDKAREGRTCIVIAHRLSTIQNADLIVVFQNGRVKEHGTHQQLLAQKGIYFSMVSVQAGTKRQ

[7] = target: T1, COX-2; experiment: Lipophilic ligand efficiency (LLE)
[8] = Aqueous solubility in PBS; type: physicochemical; conditions: aqueous buffer, read-out: Aq. Sol. (PBS)

IC50 [2] | fold improvement in plasma protein binding (PPB) ([3]; BRD1158 compared to MC1) [fold] | Fup [3] | Fup (mouse, %) [3] [%] | Fub (mouse, %) [4] [%] | Papp [5] [×10⁻⁶ cm/s] | ER [6] | P-gp efflux ([6]; result in words) | LLE [7] | solubility [8] [µM] | Structure (SMILES) | specific binding of the tracer (of the total uptake) [1]
– | – | – | – | – | – | – | – | – | – | CS(=O)(=O)c1ccc(-c2nc(NCc3cccs3)cc(O[11CH3])n2)cc1 [[^11C]MC1] | 10%–20%
24.6 nM and 25 nM | 4 | 0.091 | 9.1 | 2.2 | 50.8 | 0.9 | no P-gp efflux | 4.78 | – | CS(=O)(=O)c1ccc(-c2cccc(NCc3ccoc3)n2)cc1 [BRD1158] | –
– | – | 0.024 | 2.4 | 0.75 | 36.5 | – | – | – | 3.4 (≈ 1.28 µg/mL) | COc1cc(NCc2cccs2)nc(-c2ccc(S(C)(=O)=O)cc2)n1 [MC1, reference compound] | –
3.4 nM and 3 nM | – | – | 0.4 | 0 | 33.7 | 0.9 | – | 4.8 | – | CS(=O)(=O)c1ccc(-c2cccc(OCc3cccs3)n2)cc1 [BRD2369] | –
